Assays:
[1] = tested on: neurons; conditions: mouse model of permanent local cerebral ischemia; cited from earlier work
[2] = tested on: brain microvascular endothelial cells bEnd.3; experiment: FITC-dextran transport across physiological blood-brain barrier Transwell model; assay type: cell-based; conditions: SC79 0, 5, 10 μg/mL; 24 hours, then FITC-dextran 10 kDa for 4 hours
Protocol: FIG. 7: In vitro dose-dependent influence of SC79 on the efficiency of transportation of FITC-dextran cross the blood-brain barrier. A Transwell model of brain microvascular endothelial cells bEnd.3 was used to mimic the physiological blood-brain barrier. SC79 at different concentrations (0, 5 μg/mL, 10 μg/mL) was applied to the Transwell chamber. After 24 hours, the Transwell chamber and the outer chamber were washed with PBS. A solution of FITC-dextran in HBSS was added to the Transwell chamber for an action of 4 hours.
Brain microvascular endothelial cells bEnd.3 were used as model cells of a blood-brain barrier. 0.5 mL suspension of well-grown bEnd.3 cells was inoculated in the chamber of a 12-well Transwell plate with a pore size of 0.4 μm at a cell density of 1×10^5/well. 1.5 mL of fresh culture medium was supplemented in the outer chamber. The culture medium was refreshed every other day. Incubation was continued for 15 days at 37° C. and 5% CO2. […]
A protein kinase B activator SC79 at different concentrations ([…], 10 μg/mL) was added into the Transwell chamber in the model of physiological blood-brain barrier. […] After the cells were incubated at 37° C. in the dark for 4 hours, the concentration of FITC-dextran transferred to the outer chamber via the Transwell chamber was detected with a fluorescence spectrophotometer.

[3] = tested on: brain microvascular endothelial cells bEnd.3; experiment: Transmembrane resistance of physiological blood-brain barrier Transwell model, SC79 dose dependence; assay type: cell-based; conditions: SC79 0, 5, 10 μg/mL; 24 hours; n=5
Protocol: A Transwell model of brain microvascular endothelial cells bEnd.3 was used to mimic the physiological blood-brain barrier. SC79 at different concentrations (0, 5 μg/mL, 10 μg/mL) was applied to the Transwell chamber. After 24 hours, the cell transmembrane resistance was detected by a cell resistance meter (n=5).
(§1) Brain microvascular endothelial cells bEnd.3 were used as model cells of a blood-brain barrier. 0.5 mL suspension of well-grown bEnd.3 cells was inoculated in the chamber of a 12-well Transwell plate with a pore size of 0.4 μm at a cell density of 1×10^5/well. 1.5 mL of fresh culture medium was supplemented in the outer chamber. The culture medium was refreshed every other day. Incubation was continued for 15 days at 37° C. and 5% CO2. When the cell transmembrane resistance value was greater than 150 ohm·cm^2 (Ω·cm^2), it may be regarded that a model of physiological blood-brain barrier was obtained.
A protein kinase B activator SC79 at different concentrations (0, 5 μg/mL, 10 μg/mL) was added into the Transwell chamber in the model of physiological blood-brain barrier. After 24 hours of the drug action, the Transwell chamber with bEnd.3 cells grown was transferred to another 12-well plate, and washed with PBS for 3 times. […] After the cells were equilibrated at 37° C. for 15 minutes, the cell transmembrane resistance was detected by a cell resistance meter.

[4] = tested on: blood-brain barrier permeability; experiment: Brain distribution of DiR-labelled Angiopep-2-modified glycolipid nano-delivery system after SC79 in in situ glioma model; assay type: in vivo, BABL/c nude mice; conditions: SC79 5 mg/kg tail vein 24 hours before the DiR-labelled system; brain taken after 4 hours; vs tumor-bearing control group
Protocol: FIG. 12: Regulation of increase in the blood-brain barrier permeability and enhancement of distribution of Angiopep-2-modified glycolipid nano-delivery system in the brain by SC79. SC79 was injected into tail veins of tumor-bearing animals at an administration dose of 5 mg/kg. After 24 hours, the Angiopep-2-modified glycolipid nano-delivery system encapsulated with near-infrared fluorescent probe DiR was injected into tail veins. After 4 hours, the intact brain of the nude mice was taken by cardiac perfusion.
Male BABL/c nude mice (20+2 g) were used as the model animals. U87-luci glioma cells expressing luciferase were inoculated in the striatum area of nude mice at a concentration of 5×10^5 cells/5 μL by means of a brain stereotaxic instrument (inoculation coordinates, 0.8 mm on the anterior side of bregma, 2 mm on the right side, and 3 mm in depth), to construct an in situ glioma model. SC79 diluted with 0.2% injection grade Tween 80 solution was injected into tail veins at an administration dose of 5 mg/kg. After 24 hours, the Angiopep-2-modified glycolipid nano-delivery system encapsulated with near-infrared fluorescent probe DiR was injected into tail veins. After 4 hours, the intact brain of the nude mice was taken by cardiac perfusion. […]

[5] = tested on: tight junction proteins Claudin-5/Occludin in bEnd.3 cells; experiment: Claudin-5/Occludin immunofluorescence in physiological blood-brain barrier Transwell model after SC79; assay type: cell-based; conditions: SC79 0, 5, 10 μg/mL, 24 hours
Protocol: FIG. 8: In vitro dose-dependent down-regulation of expression of tight junction proteins Claudin-5/Occludin by SC79. A Transwell model of brain microvascular endothelial cells bEnd.3 was used to mimic the physiological blood-brain barrier. SC79 at different concentrations (0, 5 μg/mL, 10 μg/mL) was applied to the Transwell chamber. After 24 hours, the bEnd.3 cells on the membrane of the Transwell chamber were immunofluorescence stained.
as §1
A protein kinase B activator SC79 at different concentrations (0, 5 μg/mL, 10 μg/mL) was added into the Transwell chamber in the model of physiological blood-brain barrier. […]

## CCOC(=O)C1=C(N)Oc2ccc(Cl)cc2C1C(C#N)C(=O)OCC (centres unmarked) [SC79]
[1]
  survival of neurons: increases the survival of neurons
[2]
  blood-brain barrier permeability (FITC-dextran in outer chamber): increase the blood-brain barrier permeability
[3]
  cell transmembrane resistance: dose-dependent regulation of transmembrane resistance
[4]
  distribution of Angiopep-2-modified glycolipid nano-delivery system in the brain: increased
[5]
  expression of tight junction proteins Claudin-5/Occludin: promotes down-regulation of expression of tight junction proteins
